Assay results published in patent US8003676B2, “1,3,4-oxadiazole derivatives as DGAT1 inhibitors” (AstraZeneca AB, priority 2006, dated 2011).
pIC50: −log10 of the molar value.

Assays:
human DGAT1 = target: T1, human DGAT1 (Homo sapiens, UniProt O75907); test: Human Enzyme Assay (DGAT1 inhibition, 14C oleoyl CoA, triolein formation); format: biochemical; conditions: human DGAT1 expressed in sf9 insect cell membranes
T1 construct: made in house; host or cells: Sf9 insect cells (baculovirus), membrane fraction
T1 sequence (O75907 1-488): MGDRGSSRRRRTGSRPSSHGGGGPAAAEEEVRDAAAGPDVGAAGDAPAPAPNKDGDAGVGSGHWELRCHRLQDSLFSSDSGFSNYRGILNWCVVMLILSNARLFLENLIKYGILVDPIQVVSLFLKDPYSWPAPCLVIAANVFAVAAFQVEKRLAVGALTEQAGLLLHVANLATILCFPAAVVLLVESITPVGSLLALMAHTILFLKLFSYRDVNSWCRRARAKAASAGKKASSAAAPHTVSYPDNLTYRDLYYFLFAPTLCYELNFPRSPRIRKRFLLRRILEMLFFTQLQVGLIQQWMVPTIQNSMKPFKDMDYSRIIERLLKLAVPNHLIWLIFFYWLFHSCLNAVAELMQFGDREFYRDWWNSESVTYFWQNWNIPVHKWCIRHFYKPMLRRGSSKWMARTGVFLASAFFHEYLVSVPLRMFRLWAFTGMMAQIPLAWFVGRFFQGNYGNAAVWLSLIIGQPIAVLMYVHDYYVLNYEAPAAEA
Protocol: The in vitro assay to identify DGAT1 inhibitors uses human DGAT1 expressed in insect cell membranes as the enzyme source (Proc. Natl. Acad. Sci. 1998, 95, 13018-13023). Briefly, sf9 cells were infected with recombinant baculovirus containing human DGAT1 coding sequences and harvested after 48 h. Cells were lysed by sonication and membranes isolated by centrifuging at 28000 rpm for 1 h at 4° C. on a 41% sucrose gradient. The membrane fraction at the interphase was collected, washed, and stored in liquid nitrogen.
DGAT1 activity was assayed by a modification of the method described by Coleman (Methods in Enzymology 1992, 209, 98-102). Compound at 1-10 μM was incubated with 0.4 μg membrane protein, 5 mM MgCl2, and 100 μM1,2 dioleoyl-sn-glycerol in a total assay volume of 200 μl in plastic tubes. The reaction was started by adding ^14C oleoyl coenzyme A (30 μM final concentration) and incubated at room temperature for 30 minutes. The reaction was stopped by adding 1.5 mL 2-propanol:heptane:water (80:20:2). Radioactive triolein product was separated into the organic phase by adding 1 mL heptane and 0.5 mL 0.1 M carbonate buffer pH 9.5. DGAT1 activity was quantified by counting aliquots of the upper heptane layer by liquid scintillography.

ACAT = ACAT enzyme assay (esterification of cholesterol); selectivity DGAT over ACAT; format: biochemical; conditions: DGAT vs ACAT enzyme assays
Protocol: • Mouse adipocyte 3T3 cells were cultured to confluency in 6 well plates in new born calf serum containing media. Differentiation of the cells was induced by incubating in medium containing 10% foetal calf serum, 1 μg/mL insulin, 0.25 μM dexamethasone and 0.5 mM isobutylmethyl xanthine. After 48 h the cells were maintained in medium containing 10% foetal calf serum and 1 μg/mL insulin for a further 4-6 days. For the experiment, the medium was changed to serum-free medium and the cells pre-incubated with compound solubilised in DMSO (final concentration 0.1%) for 30 minutes. De novo lipogenesis was measured by the addition of 0.25 mM sodium acetate plus 1 μCi/mL ^14C-sodium acetate to each well for a further 2 h (J. Biol. Chem., 1976, 251, 6462-6464). […] Incorporation of radiolabel into the triglyceride fraction was analysed using a Radiomatic Flo-one Detector (Packard) connected to the HPLC machine. […] De novo lipogenesis was measured by the addition of 50 μM sodium acetate plus 3 μCi/mL ^14C-sodium acetate to each well for a further 3 h (J. Biol. Chem., 1976, 251, 6462-6464). […] Incorporation of radiolabel into the triglyceride fraction was analysed using a Radiomatic Flo-one Detector (Packard) connected to the HPLC machine. • 3) The ability of compounds to inhibit ACAT can be measured using a modification of the enzyme assay described in Billheimer (1985) Methods in Enzymology, 111, 286-293. […]

Structure (SMILES): O=C(Nc1ccc(O[C@H]2CC[C@@H](C(=O)O)CC2)cc1F)c1nnc(Nc2cc(F)c(F)cc2F)o1 [Example 1, cis-4-(3-Fluoro-4-{[5-(2,4,5-trifluoro-phenylamino)-[1,3,4]oxadiazole-2-carbonyl]-amino}-phenoxy)-cyclohexanecarboxylic acid]
- pIC50 (human DGAT1): 8.40
- selectivity to inhibit DGAT over inhibition of ACAT (ratio of IC50 values in the DGAT and ACAT enzyme assays) (ACAT): 70 fold
